The structures appear in SMILES notation. Bounds are passed on as bounds.

The assay addresses GCN2 (Homo sapiens, UniProt Q9P2K8). The assay can be described thus: GCN2 enzymatic endpoint assay: phosphorylation of GFP-eIF2α measured by TR-FRET (Lanthascreen). In kind it is biochemical. The note with it: tested as described in Example 77; compound and/or hydrochloride, dihydrochloride or trifluoroacetic acid salt; read-out: IC 50 Activity. In outline:
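Reaction started with 2 μM ATP and 80 nM GFP-labelled eIF2α substrate at room temperature, stopped with EDTA after 90 minutes. Phospho-eIF2α detected by terbium-labelled antibody TR-FRET; activity taken as 520 nm (fluorescein) to 495 nm (terbium) emission ratio.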

GCN2, sequence (Q9P2K8 whole entry): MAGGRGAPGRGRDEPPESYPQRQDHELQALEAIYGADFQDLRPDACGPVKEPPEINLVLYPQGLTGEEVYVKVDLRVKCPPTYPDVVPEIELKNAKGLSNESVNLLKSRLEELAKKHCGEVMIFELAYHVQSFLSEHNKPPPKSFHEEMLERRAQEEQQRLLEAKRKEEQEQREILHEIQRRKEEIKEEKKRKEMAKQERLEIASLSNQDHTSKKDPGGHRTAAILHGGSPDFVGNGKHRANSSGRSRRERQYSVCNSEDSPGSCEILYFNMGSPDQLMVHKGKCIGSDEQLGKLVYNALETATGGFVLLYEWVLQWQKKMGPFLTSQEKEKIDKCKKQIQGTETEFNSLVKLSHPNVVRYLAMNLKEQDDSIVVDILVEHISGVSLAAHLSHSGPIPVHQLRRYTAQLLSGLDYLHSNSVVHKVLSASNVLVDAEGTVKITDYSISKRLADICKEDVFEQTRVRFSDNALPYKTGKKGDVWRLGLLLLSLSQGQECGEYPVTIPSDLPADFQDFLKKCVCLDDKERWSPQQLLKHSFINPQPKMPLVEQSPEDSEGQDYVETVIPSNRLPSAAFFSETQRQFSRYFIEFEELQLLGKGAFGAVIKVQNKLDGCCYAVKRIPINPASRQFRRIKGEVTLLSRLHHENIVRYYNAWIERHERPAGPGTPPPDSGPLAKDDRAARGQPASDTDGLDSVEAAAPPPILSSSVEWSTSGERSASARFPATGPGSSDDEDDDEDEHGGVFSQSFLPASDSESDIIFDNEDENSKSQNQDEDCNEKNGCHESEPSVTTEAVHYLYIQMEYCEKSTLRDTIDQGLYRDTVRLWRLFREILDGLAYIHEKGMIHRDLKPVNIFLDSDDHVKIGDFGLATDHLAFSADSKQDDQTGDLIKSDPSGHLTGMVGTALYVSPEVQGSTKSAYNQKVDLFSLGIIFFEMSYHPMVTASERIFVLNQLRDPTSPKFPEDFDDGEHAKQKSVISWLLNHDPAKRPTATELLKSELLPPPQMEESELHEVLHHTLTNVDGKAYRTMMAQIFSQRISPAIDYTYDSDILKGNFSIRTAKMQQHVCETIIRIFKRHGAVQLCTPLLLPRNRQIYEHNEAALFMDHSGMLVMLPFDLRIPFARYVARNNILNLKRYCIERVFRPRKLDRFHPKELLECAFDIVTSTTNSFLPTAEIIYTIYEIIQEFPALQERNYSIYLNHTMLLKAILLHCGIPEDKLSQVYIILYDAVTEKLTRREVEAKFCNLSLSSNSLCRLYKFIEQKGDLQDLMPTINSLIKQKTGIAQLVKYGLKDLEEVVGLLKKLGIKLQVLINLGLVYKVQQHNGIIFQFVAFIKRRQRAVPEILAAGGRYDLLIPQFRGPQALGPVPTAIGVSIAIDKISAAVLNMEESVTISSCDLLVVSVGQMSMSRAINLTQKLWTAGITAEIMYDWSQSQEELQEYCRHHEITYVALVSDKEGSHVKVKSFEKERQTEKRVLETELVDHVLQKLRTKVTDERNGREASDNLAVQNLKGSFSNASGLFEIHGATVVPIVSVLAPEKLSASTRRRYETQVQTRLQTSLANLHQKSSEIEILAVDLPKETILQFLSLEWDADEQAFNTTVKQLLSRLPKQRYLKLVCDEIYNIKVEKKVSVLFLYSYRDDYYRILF

With `CNC(=O)[C@]1(C)CC[C@@H](Nc2ncc3c(Br)nn(-c4cc(Br)cc(CO)c4)c3n2)C1` [(1R,3R)-3-[[3-bromo-1-[3-bromo-5-(hydroxymethyl)phenyl]pyrazolo [3,4-d]pyrimidin-6-yl]amino]-N,1-dimethyl-cyclopentanecarboxamide], the IC50 lay in the range of 25 to 200 nM. The result for `CNC(=O)[C@]1(C)CC[C@@H](Nc2ncc3c(Br)nn(-c4ccc(OCCO)c(Cl)c4)c3n2)C1` [(1R,3R)-3-[[3-bromo-1-[3-chloro-4-(2-hydroxyethoxy)phenyl]pyrazolo [3,4-d]pyrimidin-6-yl]amino]-N,1-dimethyl-cyclopentanecarboxamide] reads 25 to 200 nM.

With `CNC(=O)[C@]1(C)CC[C@@H](Nc2ncc3c(Br)nn(-c4cc(Cl)c(F)c(CO)c4)c3n2)C1` [(1R,3R)-3-[[3-bromo-1-[3-chloro-4-fluoro-5-(hydroxymethyl)phenyl]pyrazolo[3,4-d]pyrimidin-6-yl]amino]-N,1-dimethyl-cyclopentanecarboxamide], the IC50 lay within 25 to 200 nM. The result for `CNC(=O)[C@]1(C)CC[C@@H](Nc2ncc3c(Br)nn(-c4cc(Cl)cc(CCO)c4)c3n2)C1` [(1R,3R)-3-[[3-bromo-1-[3-chloro-5-(2-hydroxyethyl)phenyl]pyrazolo [3,4-d]pyrimidin-6-yl]amino]-N,1-dimethyl-cyclopentanecarboxamide] reads less than 25 nM; that for `CNC(=O)[C@]1(C)CC[C@@H](Nc2ncc3c(Br)nn(-c4cc(Cl)cc(OCC(C)O)c4)c3n2)C1` (stereo partly drawn) [(1R,3R)-3-[[3-bromo-1-[3-chloro-5-(2-hydroxypropoxy)phenyl]pyrazolo[3,4-d]pyrimidin-6-yl]amino]-N,1-dimethyl-cyclopentanecarboxamide], 25 to 200 nM; that for `CNC(=O)[C@]1(C)CC[C@@H](Nc2ncc3c(Br)nn(-c4cc(Cl)cc(C5COC(=O)N5C)c4)c3n2)C1` (stereo partly drawn) [(1R,3R)-3-[[3-bromo-1-[3-chloro-5-(3-methyl-2-oxo-oxazolidin-4-yl)phenyl]pyrazolo[3,4-d]pyrimidin-6-yl]amino]-N,1-dimethyl-cyclopentanecarboxamide], 25 to 200 nM. Regarding `CNC(=O)[C@]1(C)CC[C@@H](Nc2ncc3c(Br)nn(-c4cc(Cl)cc(C5CN(C)C(=O)CO5)c4)c3n2)C1` (stereo partly drawn) [(1R,3R)-3-[[3-bromo-1-[3-chloro-5-(4-methyl-5-oxo-morpholin-2-yl)phenyl]pyrazolo[3,4-d]pyrimidin-6-yl]amino]-N,1-dimethyl-cyclopentane-carboxamide], the IC50 was in the range of 25 to 200 nM. Turning to `CNC(=O)[C@]1(C)CC[C@@H](Nc2ncc3c(Br)nn(-c4cc(Cl)cc(C5CNC(=O)CO5)c4)c3n2)C1` (stereo partly drawn) [(1R,3R)-3-[[3-bromo-1-[3-chloro-5-(5-oxomorpholin-2-yl)phenyl]pyrazolo [3,4-d]pyrimidin-6-yl]amino]-N,1-dimethyl-cyclopentanecarboxamide], the IC50 was in the range of 25 to 200 nM.

`CNC(=O)[C@]1(C)CC[C@@H](Nc2ncc3c(Br)nn(-c4cc(Cl)cc(CC#N)c4)c3n2)C1` [(1R,3R)-3-[[3-bromo-1-[3-chloro-5-(cyanomethyl)phenyl]pyrazolo[3,4-d]pyrimidin-6-yl]amino]-N,1-dimethyl-cyclopentanecarboxamide]: the IC50 was 25 to 200 nM. The result for `CNC(=O)[C@@H]1CC[C@@H](Nc2ncc3c(Br)nn(-c4cc(Cl)cc(CO)c4)c3n2)C1` [(1R,3R)-3-[[3-bromo-1-[3-chloro-5-(hydroxy-methyl)phenyl]pyrazolo[3,4-d]pyrimidin-6-yl]amino]-N-methyl-cyclopentanecarboxamide] reads 25 to 200 nM; that for `CNC(=O)[C@]1(C)CC[C@@H](Nc2ncc3c(Br)nn(-c4cc(Cl)cc(CNS(C)(=O)=O)c4)c3n2)C1` [(1R,3R)-3-[[3-bromo-1-[3-chloro-5-(methanesulfonamidomethyl)phenyl]pyrazolo[3,4-d]pyrimidin-6-yl]amino]-N,1-dimethyl-cyclopentanecarboxamide], 25 to 200 nM.

As to `CNC(=O)[C@]1(C)CC[C@@H](Nc2ncc3c(Br)nn(-c4cc(Cl)cc(CS(C)(=O)=O)c4)c3n2)C1` [(1R,3R)-3-[[3-bromo-1-[3-chloro-5-(methylsulfonylmethyl)phenyl]pyrazolo [3,4-d]pyrimidin-6-yl]amino]-N,1-dimethyl-cyclopentanecarboxamide], the IC50 was in the range of 25 to 200 nM.

On to `CNC(=O)[C@]1(C)CC[C@@H](Nc2ncc3c(Br)nn(-c4cc(Cl)cc(C(=O)N5CCNCC5)c4)c3n2)C1` [(1R,3R)-3-[[3-bromo-1-[3-chloro-5-(piperazine-1-carbonyl)phenyl]pyrazolo [3,4-d]pyrimidin-6-yl]amino]-N,1-dimethyl-cyclopentanecarboxamide], for which the IC50 was in the range of 25 to 200 nM. The result for `CNC(=O)[C@]1(C)CC[C@@H](Nc2ncc3c(Br)nn(-c4cc(Cl)cc(OCC5(F)CNC5)c4)c3n2)C1` [(1R,3R)-3-[[3-bromo-1-[3-chloro-5-[(3-fluoroazetidin-3-yl)methoxy]phenyl]pyrazolo[3,4-d]pyrimidin-6-yl]amino]-N,1-dimethyl-cyclopentanecarboxamide] reads less than 25 nM; that for `CNC(=O)[C@]1(C)CC[C@@H](Nc2ncc3c(Br)nn(-c4cc(Cl)cc([C@@H]5COC(=O)N5)c4)c3n2)C1` [(1R,3R)-3-[[3-bromo-1-[3-chloro-5-[(4R)-2-oxooxazolidin-4-yl]phenyl]pyrazolo[3,4-d]pyrimidin-6-yl]amino]-N,1-dimethyl-cyclopentanecarboxamide], less than 25 nM. The result for `CNC(=O)[C@]1(C)CC[C@@H](Nc2ncc3c(Br)nn(-c4cc(Cl)cc([C@H]5COC(=O)N5)c4)c3n2)C1` [(1R,3R)-3-[[3-bromo-1-[3-chloro-5-[(4S)-2-oxooxazolidin-4-yl]phenyl]pyrazolo[3,4-d]pyrimidin-6-yl]amino]-N,1-dimethyl-cyclopentanecarboxamide] reads 25 to 200 nM; that for `CNC(=O)[C@]1(CC(F)F)CC[C@@H](Nc2ncc3c(Br)nn(-c4ccc(-c5cccnc5)c(C#N)c4)c3n2)C1` [(1R,3R)-3-[[3-bromo-1-[3-cyano-4-(3-pyridyl)phenyl]pyrazolo[3,4-d]pyrimidin-6-yl]amino]-1-(2,2-difluoroethyl)-N-methyl-cyclopentanecarboxamide], 25 to 200 nM.

For `CNC(=O)[C@]1(C)CC[C@@H](Nc2ncc3c(Br)nn(-c4cc(C#N)cc(OCCO)c4)c3n2)C1` [(1R,3R)-3-[[3-bromo-1-[3-cyano-5-(2-hydroxyethoxy)phenyl]pyrazolo[3,4-d]pyrimidin-6-yl]amino]-N,1-dimethyl-cyclopentanecarboxamide], the IC50 is 25 to 200 nM.

As for `CNC(=O)[C@]1(C)CC[C@@H](Nc2ncc3c(Br)nn(-c4cc(C#N)cc(OCC(C)O)c4)c3n2)C1` (stereo partly drawn) [(1R,3R)-3-[[3-bromo-1-[3-cyano-5-(2-hydroxypropoxy)phenyl]pyrazolo [3,4-d]pyrimidin-6-yl]amino]-N,1-dimethyl-cyclopentanecarboxamide], the IC50 was in the range of 25 to 200 nM. The result for `CNC(=O)[C@]1(C)CC[C@@H](Nc2ncc3c(Br)nn(-c4cc(C#N)cc(OCCOC)c4)c3n2)C1` [(1R,3R)-3-[[3-bromo-1-[3-cyano-5-(2-methoxyethoxy)phenyl]pyrazolo[3,4-d]pyrimidin-6-yl]amino]-N,1-dimethyl-cyclopentanecarboxamide] reads 25 to 200 nM. With `CNC(=O)[C@]1(C)CC[C@@H](Nc2ncc3c(Br)nn(-c4cc(C#N)cc(OCC#N)c4)c3n2)C1` [(1R,3R)-3-[[3-bromo-1-[3-cyano-5-(cyanomethoxy)phenyl]pyrazolo[3,4-d]pyrimidin-6-yl]amino]-N,1-dimethyl-cyclopentanecarboxamide], the IC50 lay in the range of 25 to 200 nM. The result for `CNC(=O)[C@]1(C)CC[C@@H](Nc2ncc3c(Br)nn(-c4cc(C#N)cc(CO)c4)c3n2)C1` [(1R,3R)-3-[[3-bromo-1-[3-cyano-5-(hydroxymethyl)phenyl]pyrazolo[3,4-d]pyrimidin-6-yl]amino]-N,1-dimethyl-cyclopentanecarboxamide] reads 25 to 200 nM; that for `CNC(=O)[C@@H]1CC[C@@H](Nc2ncc3c(Br)nn(-c4cc(F)c(-c5cccnc5)c(C#N)c4)c3n2)C1` [(1R,3R)-3-[[3-bromo-1-[3-cyano-5-fluoro-4-(3-pyridyl)phenyl]pyrazolo[3,4-d]pyrimidin-6-yl]amino]-N-methyl-cyclopentane-carboxamide], 25 to 200 nM; that for `CNC(=O)[C@]1(C)CC[C@@H](Nc2ncc3c(Br)nn(-c4ccc(-c5nnc(C)o5)c(F)c4)c3n2)C1` [(1R,3R)-3-[[3-bromo-1-[3-fluoro-4-(5-methyl-1,3,4-oxadiazol-2-yl)phenyl]pyrazolo[3,4-d]pyrimidin-6-yl]amino]-N,1-dimethyl-cyclopentanecarboxamide], 25 to 200 nM. Consider `CNC(=O)[C@]1(C)CC[C@@H](Nc2ncc3c(Br)nn(-c4cc(F)cc(CCO)c4)c3n2)C1` [(1R,3R)-3-[[3-bromo-1-[3-fluoro-5-(2-hydroxyethyl)phenyl]pyrazolo [3,4-d]pyrimidin-6-yl]amino]-N,1-dimethyl-cyclopentanecarboxamide], for which the IC50 is less than 25 nM.

On to `CNC(=O)[C@]1(C)CC[C@@H](Nc2ncc3c(Br)nn(-c4cc(F)cc(CO)c4)c3n2)C1` [(1R,3R)-3-[[3-bromo-1-[3-fluoro-5-(hydroxymethyl)phenyl]pyrazolo[3,4-d]pyrimidin-6-yl]amino]-N,1-dimethyl-cyclopentanecarboxamide], for which the IC50 was in the range of 25 to 200 nM. With `CNC(=O)[C@]1(C)CC[C@@H](Nc2ncc3c(Br)nn(-c4ccc5c(c4)OCC(=O)N5CC(F)(F)F)c3n2)C1` [(1R,3R)-3-[[3-bromo-1-[3-oxo-4-(2,2,2-trifluoroethyl)-1,4-benzoxazin-7-yl]pyrazolo [3,4-d]pyrimidin-6-yl]amino]-N,1-dimethyl-cyclopentanecarboxamide], the IC50 fell in the range of 25 to 200 nM. As for `CNC(=O)[C@]1(C)CC[C@@H](Nc2ncc3c(Br)nn(-c4ccc(-n5cncn5)cc4)c3n2)C1` [(1R,3R)-3-[[3-bromo-1-[4-(1,2,4-triazol-1-yl)phenyl]pyrazolo[3,4-d]pyrimidin-6-yl]amino]-N,1-dimethyl-cyclopentane-carboxamide], the IC50 was in the range of 25 to 200 nM.

(Values after patent publication US11046699B2, “Pyrazolo-pyrimidin-amino-cycloalkyl compounds and their therapeutic uses” (RAPT THERAPEUTICS, INC., priority 2018, dated 2021).)
